Assays:
Assay type in all cases: physicochemical
[1] = Release of 1-MCP by gas sparge, small scale (Example 2); settings: 50 g 0.14% complex in 250 ml water, air 100 liters/hour
Description: Fifty grams of a 0.14% 1-MCP/α-CD complex in powdered form was placed into a 600 ml beaker which contained 250 ml of water. Also present in the beaker is a 10 inch long segment of Bubble Wall air diffusers (IPSD, Inc. San Diego, Calif.). This was connected to a Tetratec® air pump (Tetra Co., Blacksburg, Va.) via flexible connective tubing. The pump was set at a rate of 100 liters/hour. This system was then placed in a 36 liter Plexiglas airtight chamber fitted with a septum for inserting a syringe for gas sampling.
After the chamber was sealed, the pump was turned on to sparge gas through the aqueous suspension. The air in the chamber was sampled periodically to determine the rate of 1-MCP released. Analysis was performed by gas chromatography using a flame ionization detector.

[2] = Release of 1-MCP from 1-MCP/α-CD complex in water, Comparative 1 (mix every 5 min.); settings: 50 g 0.14% complex in 250 ml water, swirling 30 seconds every 5 minutes, no pump
Description: (§1) Fifty grams of 0.14% concentration of 1-MCP/α-CD complex in powdered form was placed into a 1000 ml beaker which also contained 250 ml of water. Into the beaker was also placed a Mini Jet® MN404 submersible pump (available from IPSD, Inc., San Diego, Calif.) which was set at a flow rate of approximately 200 liters/hour. This system was then placed into a 36 liter Plexiglas airtight chamber fitted with a septum for inserting a syringe for gas sampling. The temperature was set at 22° C.
(§2) After the chamber was sealed, the pump was turned on, creating a fountain-type flow in the beaker. The atmosphere of the chamber was sampled periodically to monitor the release of 1-MCP. The analysis was performed by gas chromatography using a flame ionization detector.
(§3) This procedure was repeated twice without using the pump for comparison purposes. The first comparison involved mixing the powdered suspension by swirling the contents of the beaker for 30 seconds, every 5 minutes. The second comparison involved using a 2 inch magnetic stir bar and a stir plate instead a pump to constantly mix the suspension.

[3] = Release of 1-MCP from 1-MCP/α-CD complex in water, Comparative 2 (stir bar); settings: 50 g 0.14% complex in 250 ml water, constant magnetic stir bar, no pump
Description: as §1, §2, §3

[4] = Release of 1-MCP by gas sparge, large scale, 0.14% complex (Example 3); settings: 3400 g 0.14% complex in 11 liters water, air 400 liters/hour, 22° C.
Description: Thirty four hundred grams of a 0.14% 1-MCP/α-CD complex in powdered form was placed into a 20 liter plastic vessel containing 11 liters of water and a 56 inch segment of a Bubble Wall air diffuser (IPSD, Inc., San Diego, Calif.). The air diffuser is hooked to a Pro Gold® Profile 400 air pump via flexible connective tubing. The pump was set at the rate of 400 liters of air/hour. The temperature was set at 22° C.
The vessel was covered and fitted with an outlet tube through which all of the escaping air had to pass. After the pump was turned on, the air exiting the vessel was sampled periodically for 1-MCP content. Analysis was by gas chromatography using a flame detector.

[5] = Release of 1-MCP by gas sparge, large scale, 3.3% complex, conical bottom vessel (Example 4); settings: 182 g 3.3% complex in 8 liters water, air 204 liters/hour, 22° C.
Description: One hundred eighty two grams of a 3.3% concentration of a 1-MCP/α-CD powder complex was placed in an 11 liter plastic vessel having a conical shaped bottom (at a 60 degree angle from horizontal). To the vessel was then added 8 liters of water. The vessel was fitted with a Kordon Mist Air® fine air diffuser (Novalek, Inc., Hayward, Calif.) hooked to a Sensidyne AP060SEEF60C1 air pump (available from Sensidyne Inc., Clearwater, Fla. which was set at a pumping rate of 204 liters of air/hour. The vessel was covered and then fitted with an outlet tube through which all of the vented air passed. The temperature was set at 22° C.
After the pump was turned on, the exiting air was sampled periodically for 1-MCP content. Analysis was by gas chromatography using a flame ionization detector.

[6] = Release of 1-MCP from 1-MCP/α-CD complex in water, fountain pump (Example 1); settings: 50 g 0.14% 1-MCP/α-CD complex in 250 ml water, pump approx. 200 liters/hour, 22° C.
Description: as §1, §2

Compound: CC1=CC1 [1-MCP, 1-methylcyclopropene]
- Percent 1-MCP Released (gas sparge) ([1]; Time 0.17 Hrs): 42%
- Percent 1-MCP Released (gas sparge) ([1]; Time 0.42 Hrs): 58%
- Percent 1-MCP Released (gas sparge) ([1]; Time 0.75 Hrs): 75%
- Percent 1-MCP Released (gas sparge) ([1]; Time 1.0 Hrs): 83%
- Percent 1-MCP Released (gas sparge) ([1]; Time 2.0 Hrs): 92%
- Percent 1-MCP Released Comparative 1 (mix every 5 min.) ([2]; Time 0.17): 4%
- Percent 1-MCP Released Comparative 1 (mix every 5 min.) ([2]; Time 0.42): 6%
- Percent 1-MCP Released Comparative 1 (mix every 5 min.) ([2]; Time 1.0): 9%
- Percent 1-MCP Released Comparative 1 (mix every 5 min.) ([2]; Time 3.0): 14%
- Percent 1-MCP Released Comparative 1 (mix every 5 min.) ([2]; Time 4.0): 16%
- Percent 1-MCP Released Comparative 1 (mix every 5 min.) ([2]; Time 5.5 (hours)): 17%
- Percent 1-MCP Released Comparative 2 (stir bar) ([3]; Time 0.17): 4%
- Percent 1-MCP Released Comparative 2 (stir bar) ([3]; Time 0.42): 6%
- Percent 1-MCP Released Comparative 2 (stir bar) ([3]; Time 1.0): 9%
- Percent 1-MCP Released Comparative 2 (stir bar) ([3]; Time 1.5): 14%
- Percent 1-MCP Released Comparative 2 (stir bar) ([3]; Time 2.5): 21%
- Percent 1-MCP Released Comparative 2 (stir bar) ([3]; Time 5.5 (hours)): 43%
- Percent 1-MCP Released (gas sparge) ([4]; Time 0.17 hrs.): 12%
- Percent 1-MCP Released (gas sparge) ([4]; Time 0.33 hrs.): 29%
- Percent 1-MCP Released (gas sparge) ([4]; Time 0.5 hrs.): 48%
- Percent 1-MCP Released (gas sparge) ([4]; Time 0.75 hrs.): 70%
- Percent 1-MCP Released (gas sparge) ([4]; Time 1.0 hrs.): 84%
- Percent 1-MCP Released (gas sparge) ([4]; Time 1.25 hrs.): 92%
- Percent 1-MCP Released (gas sparge) ([4]; Time 1.5 hrs.): 96%
- Percent 1-MCP Released (gas sparge) ([4]; Time 2.0 hrs.): 100%
- Percent 1-MCP Released (gas sparge) ([5]; Time 1.0 hrs.): 85%
- Percent 1-MCP Released (gas sparge) ([5]; Time 1.85 hrs.): 100%
- Percent 1-MCP Released Fountain Pump ([6]; Time 0.08): 14%
- Percent 1-MCP Released Fountain Pump ([6]; Time 0.17): 43%
- Percent 1-MCP Released Fountain Pump ([6]; Time 0.42): 57%
- Percent 1-MCP Released Fountain Pump ([6]; Time 1.0): 79%
- Percent 1-MCP Released Fountain Pump ([6]; Time 1.5): 86%
- Percent 1-MCP Released Fountain Pump ([6]; Time 2.5 (hours)): 90%

Source: patent publication US20030220201A1, “Method and device for the generation of cyclopropene compounds” (priority 2002, published 2003)
